Test results taken from PubChem BioAssay (NCI).
Values joined by “and” are separate entries in the source; they are usually repeats but may differ in a detail not shown here. Equal values may be shown once.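 Cells were grown in 96-well plates and exposed to each compound for 48 hours at five concentrations; endpoints were interpolated linearly between bracketing concentrations, or set to the highest concentration if not reached. Abbreviation: GI50, concentration required for 50% inhibition of growth. TGI denotes the concentration required for complete inhibition of growth.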

Tests used:
Assay in all cases: growth of human tumour cells (NCI), 48 h
MALME-3M melanoma = system: MALME-3M melanoma
SK-MEL-5 melanoma = system: SK-MEL-5 melanoma
CCRF-CEM leukemia = system: CCRF-CEM leukemia
UACC-62 melanoma = system: UACC-62 melanoma
NCI-H226 lung = system: NCI-H226 lung
KM20L2 colon = system: KM20L2 colon
IGROV1 ovarian = system: IGROV1 ovarian
DLD-1 colon = system: DLD-1 colon
RPMI-8226 leukemia = system: RPMI-8226 leukemia
UACC-257 melanoma = system: UACC-257 melanoma

Compound | TGI (MALME-3M melanoma) | TGI (SK-MEL-5 melanoma) | TGI (CCRF-CEM leukemia) | TGI (UACC-62 melanoma) | TGI (NCI-H226 lung) | TGI (KM20L2 colon) | TGI (IGROV1 ovarian) | TGI (DLD-1 colon) | TGI (RPMI-8226 leukemia) | TGI (UACC-257 melanoma) | GI50 (MALME-3M melanoma) [µM] | GI50 (SK-MEL-5 melanoma) [µM] | GI50 (CCRF-CEM leukemia) | GI50 (UACC-62 melanoma) [µM] | GI50 (NCI-H226 lung) [µM] | GI50 (KM20L2 colon) [µM] | GI50 (IGROV1 ovarian) [µM] | GI50 (DLD-1 colon) [µM] | GI50 (RPMI-8226 leukemia) [µM] | GI50 (UACC-257 melanoma)
NC(=S)N1N=C2CCCCCC[C@@H]2[C@H]1c1ccccc1 | > 100 µM | > 100 µM | > 100 µM | > 100 µM | > 100 µM | > 100 µM | > 100 µM | > 100 µM | 45 µM | > 100 µM | – | – | – | – | – | – | – | – | – | –
CCC[CH2][Sn](=[O])[CH2]CCC | > 50 µM | > 50 µM | > 50 µM | > 50 µM | > 50 µM | > 50 µM | > 50 µM | > 50 µM | > 50 µM | > 50 µM | > 50 | > 50 | > 50 µM | > 50 | > 50 | > 50 | > 50 | > 50 | > 50 | > 50 µM
CC(C)(C)C1=CC(=N/N=c2\scc(-c3ccccc3)n2-c2ccccc2)C=C(C(C)(C)C)C1=O | > 100 µM | > 100 µM | > 100 µM | > 100 µM | > 100 µM | > 100 µM | > 100 µM | > 100 µM | > 100 µM | > 100 µM | – | – | – | – | – | – | – | – | – | –
CC(=O)OCc1c(O)c2c([nH]c1=O)CCc1ccccc1-2 | > 35 µM | 177 µM | 297 µM | 119 µM | > 350 µM | 263 µM | > 350 µM | 162 µM | > 350 µM | 203 µM | – | – | – | – | – | – | – | – | – | –
CCN(CC)CCN(CC)CC.CCN(CC)CCN(CC)CC.[Cu+2].[Cu+2].[O-][Cl+3]([O-])([O-])[O-].[OH3+].[OH3+] | > 100 µM | 29.5 µM | > 100 µM | 36.4 µM | – | 61.4 µM | 87.9 µM | > 100 µM | > 100 µM | > 100 µM | > 100 | 15.6 | 37.6 µM | 18.3 | – | 23.9 | 29.4 | 51.9 | 83.2 | > 100 µM
CCOC(=O)C1(C(=O)OCC)C(C(C)(C)C)=C(C)c2ccccc21 | 28.9 µM | 21.8 µM | 40.9 µM | 26 µM | 28.5 µM | 28.2 µM | 36 µM | 26.4 µM | 55.8 µM | 44.3 µM | – | – | – | – | – | – | – | – | – | –
O=C(C[n+]1ccccc1)N/N=C(/CCC(=O)N(Cc1ccccc1)Cc1ccccc1)CC(=O)c1ccccc1 | > 100 µM | > 100 µM | > 100 µM | > 100 µM | > 100 µM | > 100 µM | > 100 µM | > 100 µM | > 100 µM | > 100 µM | – | – | – | – | – | – | – | – | – | –
O=C(O)Cc1cccc2c(=O)cc(-c3ccccc3)oc12 | > 1000 µM | 250 µM and > 876 µM | 237 µM and 747 µM | > 1000 µM | 250 µM and > 1000 µM | > 250 µM | > 1000 µM | > 250 µM | 250 µM and > 1000 µM | > 1000 µM | 725 | 407 | > 49.6 µM and 29.8 µM | 475 | 363 | – | 518 | – | 388 | 614 µM
CN(C)c1ccc(/C=c2\sc3nnc(-c4ccco4)n3c2=O)cc1 | > 100 µM | > 100 µM | > 100 µM | > 100 µM | > 100 µM | > 100 µM | > 100 µM | > 100 µM | > 100 µM | > 100 µM | – | – | – | – | – | – | – | – | – | –
O=C1c2ccccc2-c2c3c(cc4ccnc1c24)OCO3 | 11 µM and 15.6 µM | 8.66 µM | 39 µM and 20.7 µM | 69.2 µM and 8.07 µM | 26.2 µM and 24.4 µM | > 100 µM and 60.9 µM | > 100 µM and 34.3 µM | 24.7 µM and 27.3 µM | 29.3 µM and 54.4 µM | 39.2 µM and 11.7 µM | – | – | – | – | – | – | – | – | – | 5.23 µM and 2.59 µM
COc1ccc(/C=C/c2cc(OC)c(OC(C)=O)c(OC)c2)cc1 | 88.1 µM | – | > 100 µM | 42.8 µM | 96.6 µM | > 100 µM | > 100 µM | > 100 µM | > 100 µM | 66.9 µM | – | – | – | – | – | – | – | – | – | –
